As a reminder, the inhibition is the drop in the measured response relative to a control, in per cent.

The source made the active and inactive calls. Cut-off read from the data, not from the text of the source: active = inhibition of 80% or more and inactive = less.

This is an account of results in ChEMBL document CHEMBL4513101, “Naegleria gruberi Pathogen Box compounds screening” (2021).

In this experiment the test system is Naegleria gruberi. The experiment in a line: microbe, parasite or virus in culture. Format: functional. To be noted: NEG-M, CONC 10 uM.
Description: Growth inhibiting activity of Naegleria gruberi in vitro
In the case of `COc1ccc2nc(C)cc(OCC(=O)NCc3ccccc3)c2c1`, the inhibition at 10 µM is reported as 41.1% (not active).
The result for `Clc1ccc(CN2CCN(C3=NCCN3)CC2)cc1Cl` reads 23.3% (not active).
The result for `Cc1ccc(-c2nc(CN(Cc3ccccn3)C(C)C)cs2)o1` reads 26.7% (not active).
The result for `Cc1nnc(NC(=O)c2cn(-c3ccccc3)nc2-c2ccccc2C)o1` reads 34.7% (not active); that for `O=C(NCCc1ccccc1)c1cc(-c2cccnc2)cnc1NCC1CC1`, 37.7% (not active).
Consider `c1ccc(Oc2ccc(-c3cc(CN4CCOCC4)[nH]n3)cc2)cc1`, for which the inhibition at 10 µM is reported as 3.2% (not active).
For `Cc1nc(-c2ccccn2)nc(N2CCC(Cc3ccccc3)C2)c1Cl` (stereo not given) the value was 38.3% (not active); for `CN1CCCC1CCO[C@](C)(c1ccccc1)c1ccc(Cl)cc1` (stereo not given in full), 64.4% (not active); for `CC1COC2(CCN(c3nc(=O)c4cc(C(F)(F)F)cc([N+](=O)[O-])c4s3)CC2)O1` (stereo not given), 38.4% (not active).
The result for `CNC1C(OC2C(OC3C(O)C(O)C(N=C(N)N)C(O)C3N=C(N)N)OC(C)C2(O)C=O)OC(CO)C(O)C1O` (stereo not given) reads 0% (not active).
Turning to `Clc1ccc(Cl)c(CO[C@H]2CCCC[C@@H]2n2ccnc2)c1`, the inhibition at 10 µM is 35.1% (not active).
`Cc1nc(-c2ccccn2)nc(NCCc2ccc(S(C)(=O)=O)cc2)c1Cl`: the inhibition at 10 µM is listed as 26.6% (not active).
The result for `Clc1ccc(CCNc2cc(-c3ccccc3)nc3ncnn23)cc1` reads 44.5% (not active).
The result for `CC(=O)NCC1CN(c2ccc(-c3ccc(CNCc4cn[nH]n4)cc3)c(F)c2)C(=O)O1` (stereo not given) reads 26.2% (not active); that for `Nc1ncnc2c1c(-c1cnc3ccccc3c1)nn2CC1CCNCC1`, 4.9% (not active); that for `CC(C)n1nc(-c2cc3c(Cl)cccc3[nH]2)c2c(N)ncnc21`, 72.2% (not active).
For `Cc1cccc(C(=O)Nc2ccnc(N(C)C3CCN(CC(C)C)CC3)c2)c1` the value was 35.1% (not active); for `Cc1cnc(N2CCN[C@@H](Cc3ccccc3)C2)nc1Oc1ccc(-n2ccnc2)cc1`, 9.8% (not active).
As to `O=C1O[C@@H](COc2ccon2)CN1c1cc(F)c(C2=CCN(Cc3ccccc3)CC2)c(F)c1`, the inhibition at 10 µM is on record as 4.4% (not active).
The result for `CC1(C)OB(O)c2ccc(C3=NOC(c4cc(Cl)c(F)c(Cl)c4)(C(F)(F)F)C3)cc21` (stereo not given) reads 62.5% (not active).
For `c1ccc2c(c1)CN(CC1CC1)CC1(CCN(Cc3c[nH]c4cnccc34)CC1)O2` the value was 4.4% (not active); for `O=C(NC1CCN(c2ccnc3ccccc23)C1)c1cccc(C(F)(F)F)c1` (stereo not given), 6.7% (not active); for `OCc1ccc(-c2cncc(Nc3cccc(Cl)c3)c2)cc1`, 18.8% (not active).
For `CC(=O)N1CCN(c2ccc(Oc3ccc(Cl)cc3O)cc2)CC1` the value was 0% (not active); for `Cc1cc(C(=O)Nc2ccc(-c3ccccc3)cc2)no1`, 35.7% (not active).
`CNC(=O)c1nn(C)c2c1C(C)(C)Cc1cnc(Nc3ccc(N4CCN(C)CC4)cc3)nc1-2` [MILCICLIB]: the inhibition at 10 µM is recorded as 18.3% (not active).
The result for `O=C(Nc1cnc2ccccc2c1)c1cccc(-n2cnnn2)c1` reads 9.8% (not active); that for `Cc1cc(C)n(-c2ccc(NC(=O)C3CCN(Cc4cnc(C)s4)CC3)cc2)n1`, 6.1% (not active); that for `Cc1ccc(-c2cc(C(=O)Nc3cccnc3)c3cc(Br)ccc3n2)cc1`, 16.8% (not active).
For `Cc1cc(Cl)c(S(=O)(=O)N2CCCC2)cc1OCC(=O)NC1CCCCC1` the value was 11% (not active); for `Cc1nn(C)cc1C(C)Nc1nncc(-c2ccc(C(F)(F)F)cc2)n1` (stereo not given), 0% (not active); for `CCN(CC)CCCN1CCN(C(=O)c2cccc(-c3noc(C(F)(F)F)n3)c2)CC1`, 13% (not active).
With `CN1CCN(c2cc(-c3ccc(F)cc3)nc(-c3ccncc3)n2)CC1`, the inhibition at 10 µM was 30% (not active).
Consider `CC(=O)Oc1ccccc1C(=O)Nc1ncc([N+](=O)[O-])s1` [NITAZOXANIDE], for which the inhibition at 10 µM is given as 62.7% (not active).
The result for `Cc1cc(NCC(C)C)c2[nH]nc(-c3ccccc3)c2n1` reads 25.8% (not active); that for `c1csc(-c2cnc3sc(NCC4CCOCC4)nn23)c1`, 39.9% (not active).
Take `O=C(NCc1ccco1)N1CCN(Cc2ccc(Cl)s2)CC1`: the inhibition at 10 µM was 39.6% (not active).
`COc1cccc(OCC(=O)c2ccc(Br)cc2)c1`: the inhibition at 10 µM is 33.4% (not active).
For `COc1ccc(-c2nn(C(C)C)c3ncnc(N)c23)cc1OC` the value was 49.5% (not active).
For `CCOc1ccc(-c2nc(CNCCc3ccc(F)cc3)cs2)cc1`, the inhibition at 10 µM is on record as 42.4% (not active).
Take `CCOc1ccc2cc(-c3nn(CC4CCN(C)CC4)c4ncnc(N)c34)ccc2c1`: the inhibition at 10 µM is reported as 28% (not active).
Consider `COc1ccc(C2=NN(C3CCCCCC3)C(=O)[C@@H]3CC=CC[C@H]23)cc1OCCCCOc1ccc(-c2nnn[nH]2)cc1`, for which the inhibition at 10 µM is 30.2% (not active).
For `CNc1nnc(Sc2cnn(-c3ccccc3)c(=O)c2Cl)s1` the value was 50% (not active).
The result for `CCc1ccccc1-n1c(C)cn2c3c(=O)n(C(C(=O)OC)C(C)C)c(=O)n(C)c3nc12` (stereo not given) reads 4.4% (not active).
As for `COc1ccc(C2CC(c3cccs3)=NN2C(=O)c2ccco2)cc1OC` (stereo not given), the inhibition at 10 µM is 34.6% (not active).
In the case of `OC[C@H]1O[C@@H](n2c3ccc(Cl)cc3c3c(-c4cc5ccccc5o4)ncnc32)C(O)[C@H]1O` (stereo not given in full), the inhibition at 10 µM is reported as 17.3% (not active).
The result for `COc1cccc(-c2cc3c(Nc4cccnc4)nccc3[nH]2)c1` reads 10% (not active); that for `O=C(NCc1cc(Cl)cc(Cl)c1)c1c(C(F)(F)F)nc2ccccn12`, 28.4% (not active).
The result for `COc1cccc(-n2nnnc2S(=O)(=O)Cc2ccccc2)c1` reads 85.8% (active); that for `CCCn1c(CNc2ccccc2O)nc2ccccc21`, 39.9% (not active).
For `O=C(Nc1ccc(N2CCNCC2)cc1)c1ccn2ncc(-c3cccc(Cl)c3)c2n1` the value was 18.8% (not active); for `CN(C)c1cc(NC(=O)Nc2ccccc2)c2ccccc2n1`, 22.3% (not active).
In the case of `CCOC(=O)c1c(NC(=O)c2c(F)c(F)c(F)c(F)c2F)sc(C(N)=O)c1C`, the inhibition at 10 µM is 5.8% (not active).
The result for `CCN(CC)S(=O)(=O)c1ccc(Cl)c(C(=O)Nc2ccc3nc(C)sc3c2)c1` reads 84.7% (active); that for `Cc1cccc(-c2nc(Nc3ccncn3)c3sccc3n2)n1`, 34% (not active).
For `c1cncc(NCc2ccc(-c3cc4ccncc4cc3OC3CCNCC3)s2)c1` the value was 19.4% (not active); for `COc1ccc(CCN2CCC(NCc3cccc(N(C)C)c3)CC2)cc1`, 8.7% (not active).
The result for `O=C(OCc1ccccc1)N1CCC(c2cc(-c3ccncc3)c(-c3ccc(F)cc3)[nH]2)CC1` reads 42.4% (not active).
As for `CC(c1cc(Cl)cc(Cl)c1)N(C)c1ncc2c(N)nc(N)nc2n1` (stereo not given), the inhibition at 10 µM is on record as 11% (not active).
For `N#Cc1ccc(-c2cnc(N)c(-c3ccc(C(N)=O)cc3)n2)cc1`, the inhibition at 10 µM is listed as 21.8% (not active).
The result for `CC1CCCCN1C(=O)NCCc1coc(-c2ccc(F)cc2)n1` (stereo not given) reads 42.6% (not active); that for `Cc1cccc(Cn2ccc(NC(=O)c3ccc4c(c3)OCO4)n2)c1`, 59.7% (not active).
Regarding `Cc1c[nH]c(CCNC(=O)c2cc(-c3ccc(Cl)cc3)cs2)n1`, the inhibition at 10 µM is listed as 38.3% (not active).
For `O=C(C1CCN(c2cc(-n3cccc3)ncn2)CC1)N1CCc2ccccc2C1` the value was 13.5% (not active).
For `FC(F)(F)c1cccc(-c2nc3c(NCc4ccncc4)nccc3[nH]2)c1` the value was 25.1% (not active); for `c1ccc(-c2cc(N3CCCCC3)c3ccccc3n2)nc1`, 20.7% (not active).
For `CN(C)CCNC(=O)N1CCCN(c2ncnc3cc(-c4ccccc4)sc23)CC1` the value was 29.4% (not active); for `CCC(NC(=O)c1ccccc1NC(=O)c1ccc(C)cc1)C(=O)OC` (stereo not given), 4.8% (not active).
For `CCN(CC)CCCCCCNc1cc(OC)cc2c(C)ccnc12` [SITAMAQUINE], the inhibition at 10 µM was 40.1% (not active).
For `CS(=O)(=O)c1ccc(C(=O)N(CC2CCCO2)c2nc3ccccc3s2)cc1[N+](=O)[O-]` (stereo not given) the value was 58.7% (not active); for `COc1cc(-c2cc(-c3ccc(S(C)(=O)=O)cc3)cnc2N)ccc1O`, 67.8% (not active).
The result for `Cc1cc(C)n2nc(C(=O)Nc3cc(C(F)(F)F)ccc3N3CCOCC3)nc2n1` reads 38% (not active).
The result for `CC(C)(C)[C@H]1CC[C@H](CC2=C(O)C(=O)c3ccccc3C2=O)CC1` [BUPARVAQUONE] reads 92.9% (active); that for `Cc1cc(C)nc(-n2nc(C)cc2Nc2ccccc2)n1`, 31.5% (not active); that for `N=C(N)Nc1ccc(-c2ccc(-c3ccc(N=C(N)N)c(Cl)c3)o2)cc1Cl`, 22.3% (not active).
For the compound `COC(=O)Nc1nc2cc(C(=O)c3ccccc3)ccc2[nH]1` [MEBENDAZOLE], the inhibition at 10 µM is given as 29.8% (not active).
The result for `O=C(C(Cc1c[nH]c2ccccc12)NS(=O)(=O)c1ccc(Cl)cc1)N1CCCCC1` (stereo not given) reads 23.3% (not active); that for `O=C(CCC1CCCCC1)Nc1cccc(-c2nnc(-c3ccco3)o2)c1`, 30% (not active); that for `COc1ccc2nccc(NC(=O)C3CCN(CCc4ccc(Cl)cc4)CC3)c2n1`, 18.8% (not active).
The result for `NCCN(C(=O)c1ccc(Cl)cc1Cl)c1ccc(OCc2ccc(Cl)cc2)cc1` reads 29.6% (not active).
